Assay results taken from US20080009418A1, “Selective Inhibitors” (Alchemia LTD., priority 2004, published 2008).

Key:
Human neurokinin (NK1) = molecular target: T1, Human neurokinin (NK1) (Homo sapiens, UniProt P25103); assay: Radioligand binding, human neurokinin NK1 membranes, filtration, [125I]-Substance P; conditions: compound at 10 μM, [125I]-Substance P
T1 construct: purchased Perkin Elmer Biosignal
Outline: (§1)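 Filtration binding on cloned human receptor membranes (1 Unit/well), [125I]-Substance P for NK1 and [3H]-Diprenorphine for KOP, 1 h at room temperature. Filters PEI-presoaked, washed with cold 50 mM Tris-HCl pH 7.4, counted by scintillation; percent inhibition calculated, reference ligand defining non-specific binding.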

Human κ-Opioid (KOP) = molecular target: T2, Human κ-Opioid (KOP) (Homo sapiens, UniProt P41145); assay: Radioligand binding, human κ-opioid (KOP) membranes, filtration, [3H]-Diprenorphine; conditions: compound at 10 μM, [3H]-Diprenorphine
T2 construct: purchased Perkin Elmer Biosignal
T2 sequence (P41145 whole entry): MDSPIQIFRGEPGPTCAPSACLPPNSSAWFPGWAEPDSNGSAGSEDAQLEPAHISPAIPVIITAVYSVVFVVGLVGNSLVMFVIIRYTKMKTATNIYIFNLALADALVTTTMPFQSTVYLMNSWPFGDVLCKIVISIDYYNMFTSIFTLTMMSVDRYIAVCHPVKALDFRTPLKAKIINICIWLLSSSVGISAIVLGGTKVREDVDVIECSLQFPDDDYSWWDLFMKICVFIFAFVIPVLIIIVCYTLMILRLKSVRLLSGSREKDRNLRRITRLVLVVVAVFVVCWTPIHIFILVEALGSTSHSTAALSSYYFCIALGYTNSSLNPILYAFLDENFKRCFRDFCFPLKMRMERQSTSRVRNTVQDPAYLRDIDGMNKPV
Outline: as §1

Mouse urotensin (mUR2) = molecular target: T3, Mouse urotensin (mUR2) (Mus musculus, UniProt Q8VIH9); assay: Radioligand binding, mouse urotensin mUR2 membranes, FlashPlate, [125I]-Urotensin II; conditions: compound at 10 μM, [125I]-Urotensin II
T3 construct: purchased Perkin Elmer Biosignal
T3 sequence (Q8VIH9 1-385): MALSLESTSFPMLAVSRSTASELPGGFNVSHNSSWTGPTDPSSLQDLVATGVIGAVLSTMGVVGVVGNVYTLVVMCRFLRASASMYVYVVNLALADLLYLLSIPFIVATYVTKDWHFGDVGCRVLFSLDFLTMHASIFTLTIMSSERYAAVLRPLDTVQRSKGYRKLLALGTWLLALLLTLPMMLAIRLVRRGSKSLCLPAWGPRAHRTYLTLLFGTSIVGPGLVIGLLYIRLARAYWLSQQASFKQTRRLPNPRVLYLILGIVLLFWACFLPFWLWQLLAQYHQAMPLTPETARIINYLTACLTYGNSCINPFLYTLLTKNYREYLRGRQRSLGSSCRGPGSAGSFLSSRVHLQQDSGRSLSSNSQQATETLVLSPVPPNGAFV
Outline: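 Cloned mouse urotensin (mUR2) receptor membranes from Perkin Elmer Biosignal were immobilized in FlashPlate microplates using a proprietary coating. Each well got 19.5 μl buffer, then 0.5 μl of DMSO, reference ligand, or compound. Adding 5 μl of [125I]-Urotensin II, diluted to 5× final concentration in binding buffer, started binding. Plates were sealed with TopSeal-A and incubated 1 hour at room temperature in the dark. Wells were counted for 30 seconds each on a TopCount after a 60-second delay, and percentage inhibition was calculated.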

Human μ-opioid (MOP) = molecular target: T4, Human μ-opioid (MOP) (Homo sapiens, UniProt P35372); assay: Radioligand binding, human μ-opioid (MOP) membranes, FlashPlate, [3H]-Naloxone; conditions: compound at 10 μM, [3H]-Naloxone
T4 construct: purchased Perkin Elmer Biosignal
T4 sequence (P35372 whole entry): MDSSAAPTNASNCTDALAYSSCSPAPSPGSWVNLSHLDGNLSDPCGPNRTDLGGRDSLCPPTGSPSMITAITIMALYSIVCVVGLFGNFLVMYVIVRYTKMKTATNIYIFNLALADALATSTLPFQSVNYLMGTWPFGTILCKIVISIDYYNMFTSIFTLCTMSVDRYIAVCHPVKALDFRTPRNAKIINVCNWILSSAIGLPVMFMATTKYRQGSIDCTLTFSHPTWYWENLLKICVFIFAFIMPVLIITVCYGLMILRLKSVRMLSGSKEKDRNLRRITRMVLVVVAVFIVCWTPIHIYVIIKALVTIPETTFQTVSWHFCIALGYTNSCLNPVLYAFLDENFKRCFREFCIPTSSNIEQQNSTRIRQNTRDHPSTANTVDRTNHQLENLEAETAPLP
Outline: (§2)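 Cloned human receptor membranes were coated onto FlashPlate wells and incubated with radioligand and compound (added from a 0.5 mM DMSO daughter plate) for 1 hour at room temperature in the dark. Scintillation counting gave percent inhibition, with DMSO defining total and reference ligand defining non-specific binding.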

[1] = molecular target: T5, Human neuropeptide Y (NPY-Y1) (Homo sapiens, UniProt P25929); assay: Radioligand binding, human neuropeptide Y NPY-Y1 membranes, FlashPlate, [125I]-PYY; conditions: compound at 10 μM, [125I]-PYY
T5 construct: purchased Perkin Elmer Biosignal
T5 sequence (P25929 1-384): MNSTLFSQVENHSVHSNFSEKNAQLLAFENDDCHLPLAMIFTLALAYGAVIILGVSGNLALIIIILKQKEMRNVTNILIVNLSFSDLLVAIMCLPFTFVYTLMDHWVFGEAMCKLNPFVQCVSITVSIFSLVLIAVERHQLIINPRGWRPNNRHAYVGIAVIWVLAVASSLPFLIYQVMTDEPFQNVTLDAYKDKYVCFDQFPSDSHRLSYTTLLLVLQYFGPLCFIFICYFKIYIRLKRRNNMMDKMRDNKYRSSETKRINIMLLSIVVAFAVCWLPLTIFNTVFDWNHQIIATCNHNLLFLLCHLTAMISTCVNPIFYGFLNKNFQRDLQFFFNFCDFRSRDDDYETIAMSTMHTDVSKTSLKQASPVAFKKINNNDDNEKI
Outline: as §2

Human opioid (ORL1) = molecular target: T6, Human opioid (ORL1) (Homo sapiens, UniProt P41146); assay: Radioligand binding, human opioid ORL1 membranes, FlashPlate, [125I]-Nociceptin; conditions: compound at 10 μM, [125I]-Nociceptin
T6 construct: purchased Perkin Elmer Biosignal
T6 sequence (P41146 whole entry): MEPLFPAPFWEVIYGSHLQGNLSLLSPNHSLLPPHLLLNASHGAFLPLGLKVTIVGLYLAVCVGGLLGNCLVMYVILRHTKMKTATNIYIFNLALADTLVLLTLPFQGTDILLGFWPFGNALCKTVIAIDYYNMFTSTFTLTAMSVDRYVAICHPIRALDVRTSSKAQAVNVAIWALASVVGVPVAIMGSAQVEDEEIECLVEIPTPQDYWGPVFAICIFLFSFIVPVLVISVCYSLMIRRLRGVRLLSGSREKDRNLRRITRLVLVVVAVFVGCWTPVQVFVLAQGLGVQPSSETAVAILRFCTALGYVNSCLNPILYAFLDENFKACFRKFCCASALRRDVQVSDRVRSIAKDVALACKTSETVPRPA
Outline: as §2

[2] = molecular target: T7, Human melanin-concentrating hormone (MCH1) (Homo sapiens, UniProt Q99705); assay: Radioligand binding, human melanin-concentrating hormone MCH1 membranes, FlashPlate, [125I]-S36057; conditions: compound at 10 μM
T7 construct: purchased Perkin Elmer Biosignal
T7 sequence (Q99705 whole entry): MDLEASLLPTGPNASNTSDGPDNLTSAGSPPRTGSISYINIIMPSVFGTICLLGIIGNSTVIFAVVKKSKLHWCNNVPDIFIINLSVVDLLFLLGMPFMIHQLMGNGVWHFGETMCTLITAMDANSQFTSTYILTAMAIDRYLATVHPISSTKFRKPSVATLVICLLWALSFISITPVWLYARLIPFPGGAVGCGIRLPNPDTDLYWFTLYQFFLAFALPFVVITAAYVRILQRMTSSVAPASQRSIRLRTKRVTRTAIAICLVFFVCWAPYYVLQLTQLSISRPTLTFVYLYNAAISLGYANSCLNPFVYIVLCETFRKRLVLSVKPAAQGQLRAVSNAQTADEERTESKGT
Outline: as §2

Human Melanocortin (MC4) = molecular target: T8, Human Melanocortin (MC4) (Homo sapiens, UniProt P32245); assay: Radioligand binding, human melanocortin MC4 membranes, FlashPlate, [125I]-NDP-αMSH; conditions: compound at 10 μM, [125I]-NDP-αMSH
T8 construct: purchased Perkin Elmer Biosignal
T8 sequence (P32245 whole entry): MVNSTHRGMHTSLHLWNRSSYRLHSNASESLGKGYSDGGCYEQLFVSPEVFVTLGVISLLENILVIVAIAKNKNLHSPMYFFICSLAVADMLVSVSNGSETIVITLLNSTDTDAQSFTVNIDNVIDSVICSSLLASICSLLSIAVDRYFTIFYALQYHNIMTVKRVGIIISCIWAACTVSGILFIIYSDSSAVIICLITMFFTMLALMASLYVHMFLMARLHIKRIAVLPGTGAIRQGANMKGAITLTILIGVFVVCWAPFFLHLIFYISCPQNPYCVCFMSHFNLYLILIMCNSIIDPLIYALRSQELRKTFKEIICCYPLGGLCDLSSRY
Outline: as §2

Human Melanocortin (MC3) = molecular target: T9, Human Melanocortin (MC3) (Homo sapiens, UniProt P41968); assay: Radioligand binding, human melanocortin MC3 membranes, FlashPlate, [125I]-NDP-αMSH; conditions: compound at 10 μM, [125I]-NDP-αMSH
T9 construct: purchased Perkin Elmer Biosignal
T9 sequence (P41968 whole entry): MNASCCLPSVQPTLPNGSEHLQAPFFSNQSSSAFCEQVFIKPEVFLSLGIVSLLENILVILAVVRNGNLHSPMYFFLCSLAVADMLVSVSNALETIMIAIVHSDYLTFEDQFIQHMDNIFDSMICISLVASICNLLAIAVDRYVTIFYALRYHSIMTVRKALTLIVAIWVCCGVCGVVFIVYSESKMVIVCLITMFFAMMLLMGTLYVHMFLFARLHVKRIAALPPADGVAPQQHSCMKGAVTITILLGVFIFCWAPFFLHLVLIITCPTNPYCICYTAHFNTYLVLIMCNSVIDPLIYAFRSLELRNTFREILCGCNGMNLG
Outline: as §2

Human melanocortin (MC5) = molecular target: T10, Human melanocortin (MC5) (Homo sapiens, UniProt P33032); assay: Radioligand binding, human melanocortin MC5 membranes, FlashPlate, [125I]-NDP-αMSH; conditions: compound at 10 μM, [125I]-NDP-αMSH
T10 construct: purchased Perkin Elmer Biosignal
T10 sequence (P33032 whole entry): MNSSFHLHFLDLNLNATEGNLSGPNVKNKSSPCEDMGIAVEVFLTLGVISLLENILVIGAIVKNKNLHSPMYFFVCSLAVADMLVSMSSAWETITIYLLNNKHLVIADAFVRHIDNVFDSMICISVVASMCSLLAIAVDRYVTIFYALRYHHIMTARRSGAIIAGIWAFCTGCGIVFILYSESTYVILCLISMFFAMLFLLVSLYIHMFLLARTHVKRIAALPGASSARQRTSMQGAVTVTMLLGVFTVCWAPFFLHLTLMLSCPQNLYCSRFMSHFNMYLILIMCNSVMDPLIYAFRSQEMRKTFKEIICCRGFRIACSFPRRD
Outline: as §2

Human δ-opioid (DOP) = molecular target: T11, Human δ-opioid (DOP) (Homo sapiens, UniProt P41143); assay: Radioligand binding, human δ-opioid (DOP) membranes, FlashPlate, [3H]-Bremazocine; conditions: compound at 10 μM, [3H]-Bremazocine
T11 construct: purchased Perkin Elmer Biosignal
T11 sequence (P41143 whole entry): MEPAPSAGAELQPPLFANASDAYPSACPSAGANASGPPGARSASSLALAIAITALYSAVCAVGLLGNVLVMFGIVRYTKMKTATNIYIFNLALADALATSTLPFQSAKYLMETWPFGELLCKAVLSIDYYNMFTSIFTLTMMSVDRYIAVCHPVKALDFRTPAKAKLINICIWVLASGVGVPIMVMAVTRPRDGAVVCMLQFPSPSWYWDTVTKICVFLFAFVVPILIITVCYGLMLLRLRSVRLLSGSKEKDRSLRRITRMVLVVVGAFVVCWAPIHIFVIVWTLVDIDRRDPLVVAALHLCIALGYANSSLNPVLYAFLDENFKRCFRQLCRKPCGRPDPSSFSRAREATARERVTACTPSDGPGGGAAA
Outline: as §2

T1 sequence (P25103 whole entry): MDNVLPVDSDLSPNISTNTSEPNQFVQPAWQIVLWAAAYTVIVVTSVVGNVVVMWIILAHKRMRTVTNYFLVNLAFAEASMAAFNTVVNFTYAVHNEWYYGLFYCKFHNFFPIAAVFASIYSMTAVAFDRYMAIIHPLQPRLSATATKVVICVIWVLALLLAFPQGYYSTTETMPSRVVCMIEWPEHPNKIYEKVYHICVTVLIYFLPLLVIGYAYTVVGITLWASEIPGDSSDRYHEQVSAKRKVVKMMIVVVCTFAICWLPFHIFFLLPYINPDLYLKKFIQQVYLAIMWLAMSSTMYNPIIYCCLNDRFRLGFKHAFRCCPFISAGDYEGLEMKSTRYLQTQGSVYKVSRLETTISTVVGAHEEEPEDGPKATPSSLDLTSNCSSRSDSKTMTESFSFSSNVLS

Compound: N=C(N)NCC(=O)NC1C(OCc2ccc(Cl)cc2)OC(COCc2ccccc2)C(O)C1OCc1ccc(Cl)cc1 (stereo not drawn) [compound 418]
- A8: inhibition of radioligand binding (Human neurokinin (NK1); human NK1 membranes): + (“+” indicates greater than 50% inhibition at 10 μM)
- A2: inhibition of radioligand binding (Human κ-Opioid (KOP); human KOP membranes): − (“−” indicates less than 50% inhibition at 10 μM)
- A11: inhibition of radioligand binding (Mouse urotensin (mUR2); mouse mUR2 membranes): − (“−” indicates less than 50% inhibition at 10 μM)
- A7: inhibition of radioligand binding (Human μ-opioid (MOP); human MOP membranes): − (“−” indicates less than 50% inhibition at 10 μM)
- A9: inhibition of radioligand binding ([1]; human NPY-Y1 membranes): − (“−” indicates less than 50% inhibition at 10 μM)
- A10: inhibition of radioligand binding (Human opioid (ORL1); human ORL1 membranes): + (“+” indicates greater than 50% inhibition at 10 μM)
- A6: inhibition of radioligand binding ([2]; [125I]-S36057, human MCH1 membranes): + (“+” indicates greater than 50% inhibition at 10 μM)
- A4: inhibition of radioligand binding (Human Melanocortin (MC4); human MC4 membranes): + (“+” indicates greater than 50% inhibition at 10 μM)
- A3: inhibition of radioligand binding (Human Melanocortin (MC3); human MC3 membranes): + (“+” indicates greater than 50% inhibition at 10 μM)
- A5: inhibition of radioligand binding (Human melanocortin (MC5); human MC5 membranes): + (“+” indicates greater than 50% inhibition at 10 μM)
- A1: inhibition of radioligand binding (Human δ-opioid (DOP); human DOP membranes): − (“−” indicates less than 50% inhibition at 10 μM)

Compound: NCCC(=O)NC1C(OCc2ccc(Cl)cc2)OC(COCc2ccccc2)C(O)C1OCc1ccccc1 (single isomer, unassigned) [compound 486]
- A8: inhibition of radioligand binding, human neurokinin (NK1) (Human neurokinin (NK1)): + (“+” indicates greater than 50% inhibition at 10 μM)
- A2: inhibition of radioligand binding, human κ-opioid (KOP) (Human κ-Opioid (KOP)): − (“−” indicates less than 50% inhibition at 10 μM)
- A11: inhibition of radioligand binding, mouse urotensin (mUR2) (Mouse urotensin (mUR2)): − (“−” indicates less than 50% inhibition at 10 μM)
- A7: inhibition of radioligand binding, human μ-opioid (MOP) (Human μ-opioid (MOP)): − (“−” indicates less than 50% inhibition at 10 μM)
- A9: inhibition of radioligand binding, human neuropeptide Y (NPY-Y1) [1]: − (“−” indicates less than 50% inhibition at 10 μM)
- A10: inhibition of radioligand binding, human opioid (ORL1) (Human opioid (ORL1)): − (“−” indicates less than 50% inhibition at 10 μM)
- A6: inhibition of radioligand binding, human melanin-concentrating hormone (MCH1) ([2]; [125I]-S36057): − (“−” indicates less than 50% inhibition at 10 μM)
- A4: inhibition of radioligand binding, human melanocortin (MC4) (Human Melanocortin (MC4)): − (“−” indicates less than 50% inhibition at 10 μM)
- A3: inhibition of radioligand binding, human melanocortin (MC3) (Human Melanocortin (MC3)): − (“−” indicates less than 50% inhibition at 10 μM)
- A5: inhibition of radioligand binding, human melanocortin (MC5) (Human melanocortin (MC5)): − (“−” indicates less than 50% inhibition at 10 μM)
- A1: inhibition of radioligand binding, human δ-opioid (DOP) (Human δ-opioid (DOP)): − (“−” indicates less than 50% inhibition at 10 μM)

Compound: COC[C@H]1OC(OCc2cccc(O)c2)[C@H](NC(=O)CCCN)[C@@H](OCc2ccc(-c3ccccc3)cc2)[C@@H]1O (stereo partly drawn) [compound 143]
- A8 radioligand binding, percentage inhibition (Human neurokinin (NK1)): + (“+” indicates greater than 50% inhibition at 10 μM)
- A2 radioligand binding, percentage inhibition (Human κ-Opioid (KOP)): − (“−” indicates less than 50% inhibition at 10 μM)
- A11 radioligand binding, percentage inhibition (Mouse urotensin (mUR2)): − (“−” indicates less than 50% inhibition at 10 μM)
- A7 radioligand binding, percentage inhibition (Human μ-opioid (MOP)): + (“+” indicates greater than 50% inhibition at 10 μM)
- A9 radioligand binding, percentage inhibition [1]: − (“−” indicates less than 50% inhibition at 10 μM)
- A10 radioligand binding, percentage inhibition (Human opioid (ORL1)): − (“−” indicates less than 50% inhibition at 10 μM)
- A6 radioligand binding, percentage inhibition ([2]; [125I]-S36057): − (“−” indicates less than 50% inhibition at 10 μM)
- A4 radioligand binding, percentage inhibition (Human Melanocortin (MC4)): − (“−” indicates less than 50% inhibition at 10 μM)
- A3 radioligand binding, percentage inhibition (Human Melanocortin (MC3)): − (“−” indicates less than 50% inhibition at 10 μM)
- A5 radioligand binding, percentage inhibition (Human melanocortin (MC5)): − (“−” indicates less than 50% inhibition at 10 μM)
- A1 radioligand binding, percentage inhibition (Human δ-opioid (DOP)): − (“−” indicates less than 50% inhibition at 10 μM)
